# pIC50: −log10 of the molar value. Read-outs that look alike come from different tables or passages of the source.
# Key:
# EGFR L858R/C797S = EGFR L858R/C797S (Homo sapiens, UniProt P00533, C797S/L858R); test: Biochemical EGFR kinase assay (Lance Ultra TR-FRET), double mutant L858R/C797S
# Procedure, shortened: (§1)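 Enzyme reactions lasted 1 hour at room temperature with test compounds between 0.003 and 10 μM, followed by 10 mM EDTA quench.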
# EGFR wildtype = EGFR wildtype (Homo sapiens, UniProt P00533); test: Biochemical EGFR kinase assay (Lance Ultra TR-FRET), wildtype
# Sequence of EGFR wildtype (P00533 25-1210): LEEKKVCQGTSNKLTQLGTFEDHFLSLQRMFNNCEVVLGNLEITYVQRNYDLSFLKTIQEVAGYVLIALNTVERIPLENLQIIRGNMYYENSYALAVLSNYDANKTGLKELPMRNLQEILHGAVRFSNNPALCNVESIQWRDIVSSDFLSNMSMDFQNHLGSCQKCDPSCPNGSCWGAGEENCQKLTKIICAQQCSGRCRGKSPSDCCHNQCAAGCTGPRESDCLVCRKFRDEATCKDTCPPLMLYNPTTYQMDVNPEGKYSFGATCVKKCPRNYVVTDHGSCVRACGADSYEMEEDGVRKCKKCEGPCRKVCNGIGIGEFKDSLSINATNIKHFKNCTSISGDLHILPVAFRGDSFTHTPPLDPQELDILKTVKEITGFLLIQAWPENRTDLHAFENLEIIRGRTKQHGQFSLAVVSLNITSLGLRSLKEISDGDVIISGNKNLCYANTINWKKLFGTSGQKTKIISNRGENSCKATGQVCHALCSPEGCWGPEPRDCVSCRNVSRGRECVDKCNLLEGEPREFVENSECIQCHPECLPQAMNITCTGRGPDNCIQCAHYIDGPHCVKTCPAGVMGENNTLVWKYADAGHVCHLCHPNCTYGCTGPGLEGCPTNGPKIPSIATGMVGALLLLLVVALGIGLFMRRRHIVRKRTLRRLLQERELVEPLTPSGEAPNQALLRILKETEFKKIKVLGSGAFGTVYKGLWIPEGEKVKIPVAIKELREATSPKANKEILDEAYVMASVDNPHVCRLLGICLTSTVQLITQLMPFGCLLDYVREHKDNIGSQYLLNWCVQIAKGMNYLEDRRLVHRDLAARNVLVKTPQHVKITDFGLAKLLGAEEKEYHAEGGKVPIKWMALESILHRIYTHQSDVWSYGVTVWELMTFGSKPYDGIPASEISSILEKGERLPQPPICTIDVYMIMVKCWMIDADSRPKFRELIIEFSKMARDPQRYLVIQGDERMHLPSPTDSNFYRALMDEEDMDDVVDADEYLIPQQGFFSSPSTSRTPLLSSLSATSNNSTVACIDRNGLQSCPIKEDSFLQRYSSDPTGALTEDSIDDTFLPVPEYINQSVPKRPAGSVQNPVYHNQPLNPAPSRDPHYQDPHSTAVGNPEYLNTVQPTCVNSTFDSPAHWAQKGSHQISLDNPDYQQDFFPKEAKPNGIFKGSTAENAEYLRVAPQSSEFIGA
# Procedure, shortened: as §1
# EGFR del19/C797S = EGFR del19/C797S (Homo sapiens, UniProt P00533, C797S/DEL746-750); test: Biochemical EGFR kinase assay (Lance Ultra TR-FRET), double mutant del19/C797S
# Sequence of EGFR del19/C797S (P00533 with tags, fused parts or gaps DEL746-750/C797S): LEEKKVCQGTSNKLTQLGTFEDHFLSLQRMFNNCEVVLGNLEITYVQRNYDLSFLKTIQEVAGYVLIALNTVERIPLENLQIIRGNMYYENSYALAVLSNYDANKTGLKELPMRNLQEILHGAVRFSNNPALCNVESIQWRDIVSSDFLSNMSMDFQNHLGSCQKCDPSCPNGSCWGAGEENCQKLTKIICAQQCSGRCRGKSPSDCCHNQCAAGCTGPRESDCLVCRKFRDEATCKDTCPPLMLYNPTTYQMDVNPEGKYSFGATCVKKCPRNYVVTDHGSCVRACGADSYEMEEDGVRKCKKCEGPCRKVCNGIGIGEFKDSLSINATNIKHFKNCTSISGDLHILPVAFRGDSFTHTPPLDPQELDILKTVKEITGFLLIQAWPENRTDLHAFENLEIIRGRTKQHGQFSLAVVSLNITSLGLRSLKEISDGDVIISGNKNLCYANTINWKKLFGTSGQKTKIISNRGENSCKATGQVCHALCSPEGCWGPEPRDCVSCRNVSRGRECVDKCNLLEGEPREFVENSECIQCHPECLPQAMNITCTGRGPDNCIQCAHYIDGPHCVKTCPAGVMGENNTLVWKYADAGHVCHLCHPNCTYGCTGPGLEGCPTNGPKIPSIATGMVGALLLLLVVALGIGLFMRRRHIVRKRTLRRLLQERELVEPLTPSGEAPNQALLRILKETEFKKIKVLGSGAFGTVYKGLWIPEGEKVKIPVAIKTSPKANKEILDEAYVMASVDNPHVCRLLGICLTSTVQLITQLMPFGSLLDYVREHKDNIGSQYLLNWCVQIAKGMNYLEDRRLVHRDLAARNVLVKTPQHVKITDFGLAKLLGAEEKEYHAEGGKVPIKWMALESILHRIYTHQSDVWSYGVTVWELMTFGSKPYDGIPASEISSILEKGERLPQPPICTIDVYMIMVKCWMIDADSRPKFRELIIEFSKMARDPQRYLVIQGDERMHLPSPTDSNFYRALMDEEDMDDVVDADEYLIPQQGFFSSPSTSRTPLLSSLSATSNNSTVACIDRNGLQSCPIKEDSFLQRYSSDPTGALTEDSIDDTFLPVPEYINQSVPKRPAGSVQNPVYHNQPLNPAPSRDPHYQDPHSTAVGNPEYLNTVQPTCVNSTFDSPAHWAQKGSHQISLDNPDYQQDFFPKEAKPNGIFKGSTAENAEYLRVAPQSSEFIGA
# Procedure, shortened: as §1
# EGFR L858R/T790M/C797S = EGFR L858R/T790M/C797S (Homo sapiens, UniProt P00533, C797S/L858R/T790M); test: Biochemical EGFR kinase assay (Lance Ultra TR-FRET), triple mutant L858R/T790M/C797S
# Procedure, shortened: as §1
# EGFR del19/T790M/C797S = EGFR del19/T790M/C797S (Homo sapiens, UniProt P00533, C797S/DEL746-750/T790M); test: Biochemical EGFR kinase assay (Lance Ultra TR-FRET), triple mutant del19/T790M/C797S
# Sequence of EGFR del19/T790M/C797S (P00533 with tags, fused parts or gaps DEL746-750/T790M/C797S): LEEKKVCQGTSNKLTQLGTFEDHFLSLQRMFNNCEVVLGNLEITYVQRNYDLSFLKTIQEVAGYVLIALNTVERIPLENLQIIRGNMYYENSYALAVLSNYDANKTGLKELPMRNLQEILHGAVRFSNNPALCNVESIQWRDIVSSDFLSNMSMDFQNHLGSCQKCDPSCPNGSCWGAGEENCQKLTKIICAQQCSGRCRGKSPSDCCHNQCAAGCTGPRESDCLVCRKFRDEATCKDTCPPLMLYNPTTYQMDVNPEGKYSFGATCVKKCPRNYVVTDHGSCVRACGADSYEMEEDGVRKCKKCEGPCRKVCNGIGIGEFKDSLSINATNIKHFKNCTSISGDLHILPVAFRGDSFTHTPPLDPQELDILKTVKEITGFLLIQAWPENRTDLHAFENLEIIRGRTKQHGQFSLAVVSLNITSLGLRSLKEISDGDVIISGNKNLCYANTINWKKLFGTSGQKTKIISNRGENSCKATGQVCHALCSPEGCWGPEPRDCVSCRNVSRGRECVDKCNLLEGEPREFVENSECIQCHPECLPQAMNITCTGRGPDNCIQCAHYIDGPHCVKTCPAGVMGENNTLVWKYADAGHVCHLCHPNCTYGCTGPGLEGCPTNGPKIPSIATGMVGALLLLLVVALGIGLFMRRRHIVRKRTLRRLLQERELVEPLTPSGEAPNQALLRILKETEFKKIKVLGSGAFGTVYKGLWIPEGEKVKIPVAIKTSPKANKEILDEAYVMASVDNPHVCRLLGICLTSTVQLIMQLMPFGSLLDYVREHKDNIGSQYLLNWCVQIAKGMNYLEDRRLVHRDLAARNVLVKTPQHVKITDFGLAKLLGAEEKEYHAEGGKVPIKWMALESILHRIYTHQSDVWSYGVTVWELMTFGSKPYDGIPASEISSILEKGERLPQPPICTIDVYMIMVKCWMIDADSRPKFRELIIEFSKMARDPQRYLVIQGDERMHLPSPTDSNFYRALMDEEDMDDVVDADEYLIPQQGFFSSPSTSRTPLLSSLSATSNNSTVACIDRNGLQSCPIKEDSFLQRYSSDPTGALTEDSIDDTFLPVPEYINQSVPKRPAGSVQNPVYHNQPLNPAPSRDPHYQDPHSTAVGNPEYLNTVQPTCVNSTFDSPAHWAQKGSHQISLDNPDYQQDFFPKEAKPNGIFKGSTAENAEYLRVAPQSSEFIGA
# Procedure, shortened: as §1
# [1] = IC50 L858R/C797S (nM) 100 μM ATP, 100 μM ATP
# [2] = Km ATP, read-out: IC50 L858R/C797S (nM) Km ATP
# [3] = IC50 WT (nM) 100 μM ATP, 100 μM ATP
# [4] = Km ATP, read-out: IC50 WT (nM) Km ATP
# [5] = IC50 del19/C797S (nM) 100 μM ATP, 100 μM ATP
# [6] = Km ATP, read-out: IC50 del19/C797S (nM) Km ATP
# [7] = IC50 L858R/T790M/C797S (nM) 100 μM ATP, 100 μM ATP
# [8] = Km ATP, read-out: IC50 L858R/T790M/C797S (nM) Km ATP
# [9] = IC50 del19/T790M/C797S (nM) 100 μM ATP, 100 μM ATP
# [10] = Km ATP, read-out: IC50 del19/T790M/C797S (nM) Km ATP
# [11] = ATP at Km, read-out: IC50 L858R/C797S, Km ATP
# [12] = ATP at Km, read-out: IC50 WT, Km ATP
# [13] = ATP at Km, read-out: IC50 L858R/T790M/C797S, Km ATP
# [14] = IC50 L858R/T790M/C797S, 100 μM ATP
# [15] = ATP at Km, read-out: IC50 del19/T790M/C797S, Km ATP
# [16] = ATP at Km, read-out: IC50 del19/C797S, Km ATP
# [17] = IC50 del19/T790M/C797S, 100 μM ATP
# Sequence of EGFR L858R/C797S (P00533 25-1210 C797S/L858R): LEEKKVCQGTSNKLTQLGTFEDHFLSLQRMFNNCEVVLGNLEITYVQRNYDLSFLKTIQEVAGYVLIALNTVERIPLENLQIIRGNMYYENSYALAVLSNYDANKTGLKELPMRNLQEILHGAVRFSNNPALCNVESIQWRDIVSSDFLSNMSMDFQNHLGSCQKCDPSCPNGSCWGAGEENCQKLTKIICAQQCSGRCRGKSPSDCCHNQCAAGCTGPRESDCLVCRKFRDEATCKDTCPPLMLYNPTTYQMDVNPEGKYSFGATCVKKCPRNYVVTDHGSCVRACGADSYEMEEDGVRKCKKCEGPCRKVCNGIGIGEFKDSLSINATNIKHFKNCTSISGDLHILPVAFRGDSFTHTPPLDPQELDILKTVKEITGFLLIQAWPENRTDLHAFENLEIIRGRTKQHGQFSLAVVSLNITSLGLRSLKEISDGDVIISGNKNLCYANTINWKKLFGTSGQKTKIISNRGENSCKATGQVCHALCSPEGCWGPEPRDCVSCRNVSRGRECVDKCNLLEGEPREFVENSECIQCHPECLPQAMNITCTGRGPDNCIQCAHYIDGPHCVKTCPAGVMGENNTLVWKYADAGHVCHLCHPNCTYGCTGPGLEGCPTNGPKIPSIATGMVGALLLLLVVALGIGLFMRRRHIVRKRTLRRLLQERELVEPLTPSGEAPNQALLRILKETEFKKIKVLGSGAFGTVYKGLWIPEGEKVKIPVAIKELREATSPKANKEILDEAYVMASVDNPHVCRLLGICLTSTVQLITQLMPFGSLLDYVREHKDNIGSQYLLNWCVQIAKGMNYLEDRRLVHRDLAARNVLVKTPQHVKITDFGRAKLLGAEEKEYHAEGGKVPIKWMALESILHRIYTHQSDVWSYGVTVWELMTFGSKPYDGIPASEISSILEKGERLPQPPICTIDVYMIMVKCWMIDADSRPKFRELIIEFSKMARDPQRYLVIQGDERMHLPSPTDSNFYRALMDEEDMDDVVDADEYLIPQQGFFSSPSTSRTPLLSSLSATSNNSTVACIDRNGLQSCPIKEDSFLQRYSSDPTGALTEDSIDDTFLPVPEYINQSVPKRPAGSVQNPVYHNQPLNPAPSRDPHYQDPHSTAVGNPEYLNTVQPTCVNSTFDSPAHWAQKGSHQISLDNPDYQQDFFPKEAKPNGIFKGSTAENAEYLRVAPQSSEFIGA
IC50 (EGFR L858R/C797S; [1]),IC50 (EGFR L858R/C797S; [2]),IC50 (EGFR wildtype; [3]),IC50 (EGFR wildtype; [4]),IC50 (EGFR del19/C797S; [5]),IC50 (EGFR del19/C797S; [6]),IC50 (EGFR L858R/T790M/C797S; [7]),IC50 (EGFR L858R/T790M/C797S; [8]),IC50 (EGFR del19/T790M/C797S; [9]),IC50 (EGFR del19/T790M/C797S; [10]),pIC50 (EGFR L858R/C797S; [11]),"pIC50 (EGFR L858R/C797S; IC50 L858R/C797S, 100 μM ATP)",pIC50 (EGFR wildtype; [12]),"pIC50 (EGFR wildtype; IC50 WT, 100 μM ATP)","pIC50 (EGFR del19/C797S; IC50 del19/C797S, 100 μM ATP)",pIC50 (EGFR L858R/T790M/C797S; [13]),pIC50 (EGFR L858R/T790M/C797S; [14]),pIC50 (EGFR del19/T790M/C797S; [15]),pIC50 (EGFR del19/C797S; [16]),pIC50 (EGFR del19/T790M/C797S; [17]),Structure (SMILES)
1.8 nM,0.1 nM,327 nM,0.4 nM,0.5 nM,0.1 nM,0.2 nM,0.2 nM,0.4 nM,0.3 nM,,,,,,,,,,,"CN(C)C[C@H]1CC[C@@H](Nc2cc(Nc3ccnc(-c4cnn(S(=O)(=O)C5CC5)c4)n3)ncc2-c2cc(C(C)(C)O)c(F)cn2)CC1 [Example 107, 2-(6′-((2-(1-(Cyclopropylsulfonyl)-1H-pyrazol-4-yl)pyrimidin-4-yl)amino)-4′-(((1s,4s)-4-((dimethylamino)methyl)cyclohexyl)amino)-5-fluoro-[2,3′-bipyridin]-4-yl)propan-2-ol]"
,,,,,,,,,,8.64,8.55,8.43,< 5.00,8.31,9.30,9.00,9.30,,,"CC(C)(F)c1ccc(-c2cnc(Nc3ccnc(-c4cnn(S(=O)(=O)C5CC5)c4)n3)cc2N[C@H]2CC[C@@](C)(O)CC2)nc1 [Example 291, (1s,4s)-4-((6′-((2-(1-(Cyclopropylsulfonyl)-1H-pyrazol-4-yl)pyrimidin-4-yl)amino)-5-(2-fluoropropan-2-yl)-[2,3′-bipyridin]-4′-yl)amino)-1-methylcyclohexan-1-ol]"
,,,,,,,,,,9.40,9.05,8.74,5.85,9.05,9.70,9.52,9.05,9.22,8.77,"O=S(=O)(C1CC1)n1cc(-c2nccc(Nc3cc(N[C@H]4CC[C@@H](CO)CC4)c(-c4ccc(C(F)(F)CO)cn4)cn3)n2)cn1 [Example 244, 2-(6′-((2-(1-(Cyclopropylsulfonyl)-1H-pyrazol-4-yl)pyrimidin-4-yl)amino)-4′-(((1s,4s)-4-(hydroxymethyl)cyclohexyl)amino)-[2,3′-bipyridin]-5-yl)-2,2-difluoroethan-1-ol]"
29.9 nM,8.2 nM,> 10000 nM,21.3 nM,9.1 nM,4.6 nM,1 nM,0.7 nM,,2.8 nM,,,,,,,,,,,"C[C@]1(O)CC[C@@H](Nc2cc(Nc3ccnc(-c4cnn(S(=O)(=O)C5CC5)c4)n3)ncc2-c2cc(N3CCC(F)(F)CC3)ccn2)CC1 [Example 102, (1s,4s)-4-((6′-((2-(1-(Cyclopropylsulfonyl)-1H-pyrazol-4-yl)pyrimidin-4-yl)amino)-4-(4,4-difluoropiperidin-1-yl)-[2,3′-bipyridin]-4′-yl)amino)-1-methylcyclohexan-1-ol]"
,> 10000 nM,,> 10000 nM,,> 10000 nM,,6.6 nM,,17.5 nM,,,,,,,,,,,"CC(C)Nc1cc(Nc2ccnc(-c3cnn(S(=O)(=O)C4CC4)c3)n2)ncc1-c1cnc(OC(F)F)cn1 [Example 127, N^2-(2-(1-(Cyclopropylsulfonyl)-1H-pyrazol-4-yl)pyrimidin-4-yl)-5-(5-(difluoromethoxy)pyrazin-2-yl)-N^4-isopropylpyridine-2,4-diamine]"
0.5 nM,0.04 nM,178 nM,0.9 nM,0.3 nM,0.3 nM,0.1 nM,0.1 nM,0.2 nM,0.1 nM,,,,,,,,,,,"CN(C)C[C@H]1CC[C@@H](Nc2cc(Nc3ccnc(-c4cnn(S(=O)(=O)C5CC5)c4)n3)ncc2-c2cc(C(C)(C)O)ccn2)CC1 [Example 110, 2-(6′-((2-(1-(Cyclopropylsulfonyl)-1H-pyrazol-4-yl)pyrimidin-4-yl)amino)-4′-(((1s,4s)-4-((dimethylamino)methyl)cyclohexyl)amino)-[2,3′-bipyridin]-4-yl)propan-2-ol]"
,,,,,,,,,,8.33,7.44,7.74,5.17,7.72,9.05,8.57,8.33,8.15,8.20,"CC(C)(O)C1CCC(Nc2cc(Nc3ccnc(-c4cnn(S(=O)(=O)C5CC5)c4)n3)ncc2-c2ccc(C(C)(O)C(F)(F)F)cn2)CC1 (centres unmarked) [Example 233, 2-(6′-((2-(1-(Cyclopropylsulfonyl)-1H-pyrazol-4-yl)pyrimidin-4-yl)amino)-4′-(((1s,4s)-4-(2-hydroxypropan-2-yl)cyclohexyl)amino)-[2,3′-bipyridin]-5-yl)-1,1,1-trifluoropropan-2-ol]"
,0.4 nM,,12.7 nM,,3.3 nM,,0.4 nM,,0.3 nM,,,,,,,,,,,"CC(C)Nc1cc(Nc2ccnc(-c3cnn(S(=O)(=O)C4CC4)c3)n2)ncc1-c1ccc(N2CCOCC2)cn1 [Example 124, N^6′-(2-(1-(Cyclopropylsulfonyl)-1H-pyrazol-4-yl)pyrimidin-4-yl)-N^4′-isopropyl-5-morpholino-[2,3′-bipyridine]-4′,6′-diamine]"
654 nM,,> 10000 nM,,66.5 nM,,3.9 nM,,6.6 nM,,,,,,,,,,,,"CC(C)(O)[C@H]1CC[C@@H](Nc2cc(Nc3ccnc(-c4cnn(S(=O)(=O)C5CC5)c4)n3)ncc2-c2cc(N3CCC(F)(F)CC3)ccn2)CC1 [Example 103, 2-((1s,4s)-4-((6′-((2-(1-(Cyclopropylsulfonyl)-1H-pyrazol-4-yl)pyrimidin-4-yl)amino)-4-(4,4-difluoropiperidin-1-yl)-[2,3′-bipyridin]-4′-yl)amino)cyclohexyl)propan-2-ol]"
,5 nM,,208 nM,,19.4 nM,,0.3 nM,,0.3 nM,,,,,,,,,,,"CN1CCC(Oc2ccc(-c3cnc(Nc4ccnc(-c5cnn(CC(F)F)c5)n4)cc3NC3CC(F)(F)C3)nc2)CC1 [Example 139, N^4′-(3,3-Difluorocyclobutyl)-N^6′-(2-(1-(2,2-difluoroethyl)-1H-pyrazol-4-yl)pyrimidin-4-yl)-5-((1-methylpiperidin-4-yl)oxy)-[2,3′-bipyridine]-4′,6′-diamine]"
,,,,,,,,,,7.94,7.02,7.76,5.02,7.68,9.05,8.72,8.48,8.32,8.36,"CC(C)(O)C1CCC(Nc2cc(Nc3ccnc(-c4cnn(S(=O)(=O)C5CC5)c4)n3)ncc2-c2ccc(C(O)C(F)(F)F)cn2)CC1 (centres unmarked) [Example 229, 2-((1s,4s)-4-((6′-((2-(1-(Cyclopropylsulfonyl)-1H-pyrazol-4-yl)pyrimidin-4-yl)amino)-5-(2,2,2-trifluoro-1-hydroxyethyl)-[2,3′-bipyridin]-4′-yl)amino)cyclohexyl)propan-2-ol]"
,,,,,,,,,,9.30,7.73,8.47,5.10,8.57,9.40,9.22,9.30,8.92,9.00,"O=S(=O)(C1CC1)n1cc(-c2nccc(Nc3cc(N[C@H]4CC[C@@H](CO)CC4)c(-c4cc(OCCN5CCOCC5)ccn4)cn3)n2)cn1 [Example 212, ((1s,4s)-4-((6′-((2-(1-(Cyclopropylsulfonyl)-1H-pyrazol-4-yl)pyrimidin-4-yl)amino)-4-(2-morpholinoethoxy)-[2,3′-bipyridin]-4′-yl)amino)cyclohexyl)methanol]"
4.5 nM,0.7 nM,636 nM,4.8 nM,1.7 nM,2 nM,1 nM,,1.7 nM,,,,,,,,,,,,"O=S(=O)(C1CC1)n1cc(-c2nccc(Nc3cc(NC4CCC(CO)CC4)c(-c4ccc(N5CCOCC5)cn4)cn3)n2)cn1 (centres unmarked) [Example 57, ((1s,4s)-4-((6′-((2-(1-(Cyclopropylsulfonyl)-1H-pyrazol-4-yl)pyrimidin-4-yl)amino)-5-morpholino-[2,3′-bipyridin]-4′-yl)amino)cyclohexyl)methanol]"
,,,,,,,,,,,< 5.00,,< 5.00,6.87,,8.02,,,7.83,"CC(C)(O)[C@H]1CC[C@@H](Nc2cc(Nc3ccnc(-c4cnn(S(=O)(=O)C5CC5)c4)n3)ncc2-c2ccc(OC(F)(F)F)cn2)CC1 [Example 196, 2-((1s,4s)-4-((6′-((2-(1-(Cyclopropylsulfonyl)-1H-pyrazol-4-yl)pyrimidin-4-yl)amino)-5-(trifluoromethoxy)-[2,3′-bipyridin]-4′-yl)amino)cyclohexyl)propan-2-ol]"
